Measured values: patent US12116348B2, “Substituted benzimidazole compound and composition comprising same” (Shenzhen TargetRx, Inc., priority 2017, dated 2024)
pIC50: −log10 of the molar value.

Columns and labels:
[1] = tested on: HT-29 cells; test: Cytotoxicity experiment: viability of HT-29 cells (CellTiter-Glo); assay type: cell-based; details: Homo sapiens, 72 hours, CTG analysis, read-out: HT-29 cell IC50
Protocol: (1) Cytotoxicity Experiment
The inhibitory effects of the example compounds on the viability of HT-29 cells were tested.
Cell line: HT-29 (cell type: adherent; number of cells/well: 3000; medium: RPMI-1640+10% FBS) was cultured under the condition of 37° C., 5% CO2, and 95% humidity.
Materials and Reagents: Fetal bovine serum (FBS, GBICO, Cat. No. 10099-141), CellTiter-Glo® Luminescent Cell Viability Assay (Promega, Cat. No. G7572), 96-well plate with transparent flat bottom and black walls (Corning®, Cat. No. 3603).
Instruments: SpectraMax multi-label microplate reader, MD, 2104-0010A; CO2 incubator, Thermo Scientific, Model 3100 Series; biosafety cabinet, Thermo Scientific, Model 1300 Series A2; inverted microscope, Olympus, CKX41SF; refrigerator, SIEMENS, KK25E76TI.
• 1) Cell culture and inoculation: i) cells in the logarithmic growth phase were harvested and counted using a […]. The cell viability was determined by trypan blue exclusion method to ensure that the cell viability was greater than 90%; ii) the cell concentration was adjusted; and 90 μL of the cell suspension was added into a 96-well plate, respectively; iii) the cells in the 96-well plate were cultured overnight under the condition of 37° C., 5% CO2 and 95% humidity. • 2) Drug dilution and dosing: i) the 10-fold drug solutions were prepared with a maximum concentration of 100 μM, which was diluted using a 3.16-fold serial gradient dilution, resulting in 9 concentrations. 10 μL of the drug solutions was added to each well of the 96-well plate inoculated with cells; and each drug concentration was tested in triplicate; ii) the cells in the 96-well plate added with drugs were cultured under the condition of 37° C., 5% CO2 and 95% humidity for 72 hours, and then CTG analysis was carried out. • 3) Plate reading at the end point: i) CTG reagent was thawed and the cell plate was equilibrated to room temperature for 30 minutes; ii) equal volume of the CTG solution was added to each well; iii) the cell plate was shaked on the orbital shaker for 5 minutes to lyse the cells; iv) the cell plate was placed at room temperature for 20 minutes to stabilize the cold light signal; v) the cold light values were read.
Data processing: GraphPad Prism 5.0 software was used to analyze the data, and the data was fitted using the non-linear S-curve regression to get a dose-effect curve, and IC50 values were calculated accordingly. Cell viability (%)=(Lum of test drug−Lum of medium control)/(Lum of cell control−Lum of medium control)×100%.

[2] = Metabolic stability evaluation in mouse liver microsomes; assay type: in vitro ADME; details: SD, pH 7.4, mouse liver microsomes 0.5 mg/mL, compound 1 μM; for microsomal CLint at 1 μM: liver intrinsic clearance; for half-life at 1 μM: NADPH, 37° C.
Protocol: (2) Metabolic Stability Evaluation
Microsome assay: mouse liver microsomes: 0.5 mg/mL, Xenotech; coenzyme (NADPH/NADH): 1 mM, Sigma Life Science; magnesium chloride: 5 mM, 100 mM phosphate buffer (pH 7.4).
Preparation of stock solutions: Powder of the example compounds were accurately weighed and dissolved in DMSO to 5 mM respectively.
Preparation of phosphate buffer (100 mM, pH7.4): A pre-prepared 0.5M potassium dihydrogen phosphate (150 mL) was mixed with 0.5M dibasic potassium phosphate (700 mL). The pH of the mixture was adjusted to 7.4 with 0.5M dibasic potassium phosphate solution. The mixture was diluted 5-fold with ultrapure water before use, and magnesium chloride was added to obtain a phosphate buffer (100 mM) containing 100 mM potassium phosphate, 3.3 mM magnesium chloride, pH 7.4.
A NADPH regeneration system solution (containing 6.5 mM NADP, 16.5 mM G-6-P, 3 U/mL G-6-P D, 3.3 mM magnesium chloride) was prepared and placed on wet ice prior to use.
Preparation of stop solution: an acetonitrile solution containing 50 ng/mL propranolol hydrochloride and 200 ng/mL tolbutamide (internal standard). 25057.5 μL of phosphate buffer (pH 7.4) was taken into a 50 mL centrifuge tube, to which 812.5 μL of SD mouse liver microsomes were added, and mixed to obtain a liver microsome dilution with a protein concentration of 0.625 mg/mL.
Incubation of the samples: The stock solutions of the respective compounds were respectively diluted to 0.25 mM with an aqueous solution containing 70% acetonitrile, and used as a working solution, ready for use. 398 μL of the dilutions of mouse liver microsomes were added to 96-well incubation plates (N=2), respectively, and 2 μL of 0.25 mM working solution was added respectively and mixed.
Metabolic stability assay: 300 μL of pre-chilled stop solution was added to each well of 96-well deep well plates and placed on ice as stop plates. The 96-well incubation plates and NADPH regeneration system were placed in a 37° C. water bath, shaken at 100 rpm and pre-incubated for 5 min. 80 μL of incubation solution was taken out from each well of the incubation plates and added to the stop plates, mixed, and replenished with 20 μL of NADPH regeneration system solution as a 0-min sample. 80 μL of NADPH regeneration system solution was added to each well of the incubation plates to start the reaction and start counting. […] Separately, 100 μL of the reaction solutions was taken at 10, 30, and 90 min after the reaction, respectively, added to stop plates, and vortexed for 3 minutes to terminate the reaction. The stop plates were centrifuged at 5000×g at 4° C. for 10 min. 100 μL of the supernatant was added to a 96-well plate to which 100 μL of distilled water was previously added, mixed, and analyzed by LC-MS/MS.
Data analysis: The peak areas of the corresponding compounds and internal standard were detected by LC-MS/MS system, and the ratio of the peak area of the compounds to the internal standard was calculated.

[2H]C([2H])([2H])n1cnc2c(F)c(Nc3ccc(Br)cc3Cl)c(C(=O)NOCCO)cc21 [A-1, 6-(4-bromo-2-chloro-phenylamino)-7-fluoro-3-(methyl-d3)-3H-benzimidazole-5-carboxylic acid (2-hydroxyethoxy)-amide]
pIC50 [1]: > 9.30
microsomal CLint at 1 μM [2]: 19.7 µL/min/mg
half-life at 1 μM [2]: 1.17 h

[2H]C([2H])(O)CONC(=O)c1cc2c(ncn2C)c(F)c1Nc1ccc(Br)cc1Cl [A-4, 6-(4-bromo-2-chlorophenylamino)-7-fluoro-3-methyl-3H-benzimidazole-5-carboxylic acid (2-hydroxyethoxy-2,2-d2)amide]
pIC50 [1]: > 9.30
microsomal CLint at 1 μM [2]: 24.6 µL/min/mg
half-life at 1 μM [2]: 0.94 h

[2H]C([2H])(O)CONC(=O)c1cc2c(ncn2C([2H])([2H])[2H])c(F)c1Nc1ccc(Br)cc1Cl [A-5, 6-(4-bromo-2-chlorophenylamino)-7-fluoro-3-(methyl-d3)-3H-benzimidazole-5-carboxylic acid (2-hydroxyethoxy-2,2-d2)amide]
pIC50 [1]: > 9.30
microsomal CLint at 1 μM [2]: 20.9 µL/min/mg
half-life at 1 μM [2]: 1.11 h

[2H]C([2H])(O)C([2H])([2H])ONC(=O)c1cc2c(ncn2C)c(F)c1Nc1ccc(Br)cc1Cl [A-6, 6-(4-bromo-2-chlorophenylamino)-7-fluoro-3-methyl-3H-benzimidazole-5-carboxylic acid (2-hydroxyethoxy-1,1,2,2-d4)amide]
microsomal CLint at 1 μM [2]: 19.8 µL/min/mg
half-life at 1 μM [2]: 1.17 h

Cn1cnc2c(F)c(Nc3ccc(Br)cc3Cl)c(C(=O)NOCCO)cc21 [Selumetinib, 6-(4-bromo-2-chloro-phenylamino)-7-fluoro-3-methyl-3H-benzimidazole-5-carboxylic acid (2-hydroxy-ethoxy)-amide, reference compound]
pIC50 [1]: > 9.30
microsomal CLint at 1 μM [2]: 23.6 µL/min/mg
half-life at 1 μM [2]: 0.978 h
